Measured values: ChEMBL document CHEMBL5346901, “Discovery of potent Plasmodium falciparum protein kinase 6 (PfPK6) inhibitors with a type II inhibitor pharmacophore” (Eur J Med Chem, 2023)
Values after ≈ are worked out from the molar mass of the structure shown. Active and inactive are the calls of the source. The calls are words filed in the database; no cut-off is given here.

Tests used:
[1] = molecular target: T1, Cdk-related protein kinase 6 (Plasmodium falciparum) (UniProt O77239); test: Inhibition of plasmodium falciparum PK6 assessed as remaining activity at 1 uM incubated for 2 hrs by luciferin-based luminescence assay relative to control
T1 sequence (whole entry): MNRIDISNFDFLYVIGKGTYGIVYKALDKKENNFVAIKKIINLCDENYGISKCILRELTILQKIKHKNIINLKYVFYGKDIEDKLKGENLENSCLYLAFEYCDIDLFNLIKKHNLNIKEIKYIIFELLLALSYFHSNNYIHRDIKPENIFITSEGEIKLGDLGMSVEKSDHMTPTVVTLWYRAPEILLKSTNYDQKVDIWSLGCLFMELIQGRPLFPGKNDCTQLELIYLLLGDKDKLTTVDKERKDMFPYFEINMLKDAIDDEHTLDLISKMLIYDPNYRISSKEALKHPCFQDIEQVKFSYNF

Plasmodium falciparum = test: Antimalarial activity against blood stage Plasmodium falciparum 3D7 assessed as reduction in parasite growth incubated for 72 hrs by SYBR Green dye based fluorescence assay; type: functional, organism-based; conditions: for EC50: 3D7, 72 h
[2] = Kinetic solubility of the compound at pH 7.4; type: physicochemical; conditions: buffer, read-out: Kinetic_solubility
[3] = molecular target: Calcium-dependent protein kinase 1 (Plasmodium falciparum) (UniProt P62344); test: Inhibition of plasmodium falciparum CDPK1 assessed as remaining activity at 1 uM by Kinomescan method relative to control; conditions: time 2.0 hrs
[4] = Apparent permeability of compound by PAMPA assay; type: ADME
HepG2 = test: Cytotoxicity against human HepG2 cells assessed as reduction in cell viability by CellTiter-Glo assay; type: toxicity, cell-based

Sequence of Calcium-dependent protein kinase 1 (Plasmodium falciparum) (P62344 2-524 limits assumed): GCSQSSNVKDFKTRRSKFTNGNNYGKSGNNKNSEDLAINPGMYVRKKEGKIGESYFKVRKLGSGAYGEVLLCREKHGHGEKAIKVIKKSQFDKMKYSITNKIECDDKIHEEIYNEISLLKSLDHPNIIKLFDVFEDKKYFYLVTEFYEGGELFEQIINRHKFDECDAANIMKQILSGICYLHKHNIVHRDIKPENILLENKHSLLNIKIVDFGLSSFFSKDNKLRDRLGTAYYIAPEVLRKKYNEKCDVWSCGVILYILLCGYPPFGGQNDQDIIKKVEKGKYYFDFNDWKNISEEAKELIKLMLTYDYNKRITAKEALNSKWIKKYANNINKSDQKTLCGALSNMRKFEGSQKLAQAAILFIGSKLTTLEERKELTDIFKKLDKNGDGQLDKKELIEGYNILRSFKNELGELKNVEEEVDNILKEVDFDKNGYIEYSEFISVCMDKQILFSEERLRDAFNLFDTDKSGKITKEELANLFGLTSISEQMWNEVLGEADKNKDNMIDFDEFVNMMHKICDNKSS

SMILES	Activity [1] [%]	EC50 (Plasmodium falciparum) [nM]	further results
O=C(Nc1ccc(F)cc1F)Nc1ccc(Oc2cc(NCc3ccccc3)ncn2)cc1F	60	–	–
Nc1ncnc2occ(-c3ccc(NC(=O)Nc4cc(C(F)(F)F)ccc4F)cc3)c12 [GW770249X]	–	500	–
COc1cc2nccc(Oc3ccc(NC(=O)Nc4ccc(F)cc4F)c(F)c3)c2cc1OC	–	–	solubility kinetic [2]: 0.7 µM (≈ 0.329 µg/mL); Activity (Plasmodium falciparum): inactive
COc1cc2nccc(Oc3ccc(NC(=O)Nc4ccccc4)c(F)c3)c2cc1OC	1	–	–
COc1ccc2c(Oc3ccc(NC(=O)Nc4ccc(F)cc4F)c(F)c3)ccnc2c1	11	–	–
COc1cc2nccc(Oc3ccc(NC(=O)Nc4ccc(C=C5CCNCC5)c(OC(F)(F)F)c4)c(F)c3)c2cc1OC	–	84	–
COc1cccc(NC(=O)Nc2ccc(Oc3ccnc4cc(OC)c(OC)cc34)cc2F)c1	–	–	Activity (Plasmodium falciparum): inactive
CCN(CC)Cc1ccc(NC(=O)Nc2ccc(Oc3ccnc4cc(OC)c(OC)cc34)cc2F)cc1OC(F)(F)F	–	270	–
COc1cc2nccc(Oc3ccc(NC(=O)Nc4ccc(F)cc4)c(F)c3)c2cc1OC	1	–	–
COc1cc2nccc(Oc3ccc(N)c(F)c3)c2cc1OC	100	–	–
COc1cc2nccc(Oc3cc(C(=O)Nc4ccc(CN5CCN(C)CC5)c(C(F)(F)F)c4)ccc3C)c2cc1OC	–	410	–
COc1cc2nccc(Oc3ccc(NC(=O)Nc4cccc(Cl)c4)c(F)c3)c2cc1OC	–	2190	–
COc1cc2nccc(Oc3ccc(NC(C)=O)c(F)c3)c2cc1OC	26	–	–
COc1cc2nccc(Oc3ccc(NC(=O)Nc4ccc(N(C)C5CCN(C)CC5)c(C(F)(F)F)c4)c(F)c3)c2cc1OC	–	150	–
COc1cc2nccc(Oc3ccc(NC(=O)Nc4ccc(OC5CCN(C)CC5)c(OC(F)(F)F)c4)c(F)c3)c2cc1OC	–	75	–
COc1cc2nccc(Oc3ccc(NC(=O)Nc4ccc(CN5CCCCC5)c(C(F)(F)F)c4)c(F)c3)c2cc1OC	–	490	–
O=C(Nc1ccc(F)cc1F)Nc1ccc(Oc2ccncc2)cc1F	50	–	–
COc1cc2nccc(Oc3ccc(NC(=O)Nc4cccc(C(C)(C)C)c4)c(F)c3)c2cc1OC	–	2520	–
COc1cc2nccc(Oc3ccc(NC(=O)Nc4ccccc4)cc3)c2cc1OC	4	–	–
CN1CCN(C(=O)c2cccc(NC(=O)Nc3ccc(N(C)c4ccnc(Nc5ccc(CS(C)(=O)=O)cc5)n4)cc3)c2)CC1	–	390	–
COc1cc2nccc(Oc3ccc(NC(=O)Nc4ccc(CN5CCCC5)cc4)c(F)c3)c2cc1OC	–	270	–

SMILES	Activity [1] [%]	EC50 (Plasmodium falciparum) [nM]	further results
O=C(Nc1ccc(F)cc1F)Nc1ccc(Oc2ncnc3ccsc23)cc1F	61	–	–
COc1ccc2nccc(Oc3ccc(NC(=O)Nc4ccc(F)cc4F)c(F)c3)c2c1	24	–	–
CCN(CC)Cc1ccc(NC(=O)Nc2ccc(Oc3ccnc4cc(OC)c(OC)cc34)cc2F)cc1C(F)(F)F	–	300	–
O=C(Nc1ccc(F)cc1F)Nc1ccc(Oc2cnnc3ccccc23)cc1F	100	–	–
O=C(Nc1ccc(F)cc1F)Nc1ccc(Oc2ccnc3sccc23)cc1F	43	–	–
COc1cc2nccc(Oc3ccc(N)cc3)c2cc1OC	95	–	–
C[C@H]1[C@@H](O)O[C@@H]2O[C@@]3(C)CC[C@H]4[C@H](C)CC[C@@H]1[C@@]24OO3 [ARTENIMOL]	–	0.14	–
N#Cc1cnc2ccccc2c1Oc1ccc(NC(=O)Nc2ccc(F)cc2F)c(F)c1	86	–	–
COc1cc2nccc(Oc3ccc(NC(=O)Nc4ccc(N(C)C5CCN(C)CC5)c(OC(F)(F)F)c4)c(F)c3)c2cc1OC	–	250	–
COc1cc2nccc(Oc3ccc(NC(=O)Nc4ccc(F)cc4F)cc3)c2cc1OC	6	–	–
COc1cc2nccc(Oc3ccc(NC(=O)Nc4ccc(N5CCN(C)CC5)cc4)c(F)c3)c2cc1OC	–	630	–
CCc1nc(N)nc(N)c1-c1ccc(Cl)cc1 [PYRIMETHAMINE]	–	27	–
COCCOc1cc2nccc(Oc3ccc(NC(=O)Nc4ccc(F)cc4F)c(F)c3)c2cc1OCCOC	2	–	–
COc1cc2nccc(Oc3ccc(NC(=O)Nc4cc(C(F)(F)F)ccc4F)c(F)c3)c2cc1OC	–	–	Activity (Plasmodium falciparum): inactive
COc1cc2ncnc(Oc3ccc(NC(=O)Nc4ccc(F)cc4F)c(F)c3)c2cc1OC	6	–	–
O=C(Nc1ccc(F)cc1F)Nc1ccc(Oc2ccnc3cc4c(cc23)OCCO4)cc1F	30	–	–
COc1cc2nccc(Oc3cccc(F)c3)c2cc1OC	84	–	–
O=C(Nc1ccc(F)cc1F)Nc1ccc(Oc2ccnc(Cl)n2)cc1F	98	–	–
O=C(Nc1ccc(F)cc1F)Nc1ccc(Oc2ccnc3ccsc23)cc1F	34	–	–
COc1ccc(NC(=O)Nc2ccc(F)cc2F)c(F)c1	100	–	–
COc1cc2nccc(Oc3ccc(NC(=O)Nc4ccc(CN5CCN(C)CC5)c(C(F)(F)F)c4)c(F)c3)c2cc1OC	–	110	Activity [3]: 1.6%; solubility kinetic [2]: 2.1 µM (≈ 1.29 µg/mL); Papp [4]: 2.57 10^-6 cm/s; CC50 (HepG2): 1000 nM

SMILES	Activity [1] [%]	EC50 (Plasmodium falciparum) [nM]	further results
COc1cc2nccc(Oc3ccc(NC(=O)Nc4ccc(OC5CCN(C)CC5)cc4)c(F)c3)c2cc1OC	–	330	–
O=C(Nc1ccc(F)cc1F)Nc1ccc(Oc2ccnc(Cl)c2)cc1F	92	–	–
COc1cc2nccc(Oc3ccc(NC(=O)Nc4cccc(OC(F)F)c4)c(F)c3)c2cc1OC	–	–	Activity (Plasmodium falciparum): inactive
O=C(Nc1ccc(F)cc1F)Nc1ccc(Oc2cc(Cl)ncn2)cc1F	96	–	–
O=C(Nc1ccc(F)cc1F)Nc1ccc(Oc2ccnc3cc4c(cc23)OCO4)cc1F	28	–	–
COc1cc2nccc(Oc3ccc(NC(=O)Nc4ccc(CN5CCCCC5)c(OC(F)(F)F)c4)c(F)c3)c2cc1OC	–	310	–
COc1cc2nccc(Oc3ccc(NC(=O)Nc4cccc(OC(C)C)c4)c(F)c3)c2cc1OC	–	–	Activity (Plasmodium falciparum): inactive
COc1cc2nccc(Oc3ccc(NC(=O)Nc4ccc(C=C5CCNCC5)c(C(F)(F)F)c4)c(F)c3)c2cc1OC	–	83	–
O=C(Nc1ccc(F)cc1F)Nc1ccc(Oc2ncnc3sccc23)cc1F	80	–	–
COc1cc2nccc(Oc3ccc(NC(=O)Nc4ccc(N(C)C5CCN(C)CC5)cc4)c(F)c3)c2cc1OC	–	330	–
COc1cc2nccc(Oc3ccc(NC(=O)Nc4ccc(CN5CCCC5)c(OC(F)(F)F)c4)c(F)c3)c2cc1OC	–	230	–
COc1cc2nccc(Oc3ccc(NC(=O)Nc4cccc(C(C)C)c4)c(F)c3)c2cc1OC	–	–	Activity (Plasmodium falciparum): inactive
COc1cc2nccc(Oc3ccc(NC(=O)Nc4ccccc4F)c(F)c3)c2cc1OC	1	–	–
COc1cc2nccc(Oc3ccc(NC(=O)Nc4ccc(C(=O)N5CCN(C)CC5)c(C(F)(F)F)c4)c(F)c3)c2cc1OC	–	–	Activity (Plasmodium falciparum): inactive
COc1cc2nccc(Oc3ccc(NC(=O)Nc4cccc(C)c4)c(F)c3)c2cc1OC	–	3010	–
COc1cc2nccc(Oc3ccc(NC(=O)Nc4ccc(C(=O)N5CCN(C)CC5)cc4)c(F)c3)c2cc1OC	–	–	Activity (Plasmodium falciparum): inactive
CCN(CC)Cc1ccc(NC(=O)Nc2ccc(Oc3ccnc4cc(OC)c(OC)cc34)cc2F)cc1	–	320	–
O=C(Nc1ccc(F)cc1F)Nc1ccc(Oc2ccnc3[nH]ccc23)cc1F	14	–	–
COc1cc2nccc(Oc3ccc(NC(=O)Nc4cccc(C#N)c4)c(F)c3)c2cc1OC	–	–	Activity (Plasmodium falciparum): inactive
O=C(Nc1ccc(F)cc1F)Nc1ccc(Oc2ncnc3ccccc23)cc1F	83	–	–
O=C(Nc1ccc(F)cc1F)Nc1ccc(Oc2ccnc3cc(Cl)ccc23)cc1F	38	–	–

SMILES	Activity [1] [%]	EC50 (Plasmodium falciparum) [nM]	further results
COc1cc2nccc(Oc3ccc(NC(N)=O)c(F)c3)c2cc1OC	28	–	–
COc1cc2nccc(Oc3ccc(NC(=O)Nc4cccc(OC(F)(F)F)c4)c(F)c3)c2cc1OC	–	800	–
COc1cc2nccc(Oc3ccc(NC(=O)Nc4cc(CN5CCN(C)CC5)cc(C(F)(F)F)c4)c(F)c3)c2cc1OC	–	410	–
COc1cc2nccc(Oc3ccc(NC(=O)Nc4cccc(Br)c4)c(F)c3)c2cc1OC	–	–	Activity (Plasmodium falciparum): inactive
COc1cc2nccc(Oc3ccc(NC(=O)Nc4cccc(C(=O)N5CCN(C)CC5)c4)c(F)c3)c2cc1OC	–	–	Activity (Plasmodium falciparum): inactive
O=C(Nc1ccc(F)cc1F)Nc1ccc(Oc2ccncn2)cc1F	84	–	–
COc1cc2nccc(Oc3ccc(NC(=O)Nc4cc(C(=O)N5CCN(C)CC5)cc(C(F)(F)F)c4)c(F)c3)c2cc1OC	–	–	Activity (Plasmodium falciparum): inactive
O=C(Nc1ccc(F)cc1F)Nc1ccc(Oc2ncnc3[nH]ccc23)cc1F	54	–	–
COc1cc2nccc(Oc3ccc(NC(=O)Nc4ccc(CN5CCN(C)CC5)cc4)c(F)c3)c2cc1OC	–	580	–
O=C(Nc1ccc(F)cc1F)Nc1ccc(Oc2ccnc3ccccc23)cc1F	40	–	–
COc1cc2nccc(Oc3ccc(NC(=O)Nc4ccc(CC5CCNCC5)c(OC(F)(F)F)c4)c(F)c3)c2cc1OC	–	82	–
COc1cc2nccc(Oc3ccc(NC(=O)Nc4ccc(CN5CCCC5)c(C(F)(F)F)c4)c(F)c3)c2cc1OC	–	330	–
COc1cc2nccc(Oc3ccc(NC(=O)Nc4cccc(CN5CCN(C)CC5)c4)c(F)c3)c2cc1OC	–	–	Activity (Plasmodium falciparum): inactive
CCN(CC)CCCC(C)Nc1c2ccc(Cl)cc2nc2ccc(OC)cc12 (configuration not stated) [QUINACRINE]	–	33	–
COc1cc2nccc(Oc3ccc(NC(=O)Nc4cccc(C(F)(F)F)c4)c(F)c3)c2cc1OC	–	540	–
COc1cc2nccc(Oc3ccc(NC(=O)Nc4ccc(CN5CCOCC5)cc4)c(F)c3)c2cc1OC	–	–	Activity (Plasmodium falciparum): inactive
COc1cc2nccc(Oc3ccc(NC(=O)Nc4ccc(CN5CCCCC5)cc4)c(F)c3)c2cc1OC	–	250	–
COc1cc2nccc(Oc3ccc(NC(=O)Nc4ccc(NC5CCN(C)CC5)cc4)c(F)c3)c2cc1OC	–	660	–
O=C(Nc1ccc(O)cc1F)Nc1ccc(F)cc1F	100	–	–
